This passage reports MIC and Activity results from ChEMBL document CHEMBL5365500, “Development and Antibacterial Properties of 4-[4-(Anilinomethyl)-3-phenylpyrazol-1-yl]benzoic Acid Derivatives as Fatty Acid Biosynthesis Inhibitors” (J Med Chem, 2023).

Assay [1] has as its system Staphylococcus aureus. In words: Antimicrobial activity against Staphylococcus aureus ATCC 25923 assessed as inhibition of visible growth measured after 20 to 24 hrs incubation by CLSI method. In kind it is functional. The following applies: time 20-24 hrs.
The test system of assay [2] is Staphylococcus aureus. In words: Antimicrobial activity against antibiotic-resistant Staphylococcus aureus ATCC BAA-2312 assessed as inhibition of visible growth measured after 20 to 24 hrs incubation by CLSI method. In kind it is functional. To be noted: time 20-24 hrs.
In assay [3] the test system is Staphylococcus aureus. In words: Antimicrobial activity against antibiotic-resistant Staphylococcus aureus ATCC 33591 assessed as inhibition of visible growth measured after 20 to 24 hrs incubation by CLSI method. The class given is functional. The following applies: time 20-24 hrs.
Assay [4] relates to Staphylococcus epidermidis. In words: Antimicrobial activity against antibiotic-resistant Staphylococcus epidermidis ATCC 700296 assessed as inhibition of visible growth measured after 20 to 24 hrs incubation by CLSI method. The class given is functional. To be noted: time 20-24 hrs.
Assay [5] concerns Staphylococcus aureus. In words: In vivo antimicrobial activity against Staphylococcus aureus Newman infected in Caenorhabditis elegans AU37 nematodes assessed as viability of nematodes incubated for 5 days by susceptibility test. In kind it is functional. The following applies: 120 h, time 5 day.
The subject of assay [6] is Staphylococcus aureus. In words: In vivo antimicrobial activity against Staphylococcus aureus UAMS-1 infected in Caenorhabditis elegans AU37 nematodes assessed as viability of nematodes incubated for 5 days by susceptibility test. The class given is functional. To be noted: UAMS-1, 120 h, time 5 day.
Assay [7] relates to Enterococcus faecalis. In words: Antimicrobial activity against antibiotic-susceptible Enterococcus faecalis ATCC 29212 assessed as inhibition of visible growth measured after 20 to 24 hrs incubation by CLSI method. The class given is functional. To be noted: time 20-24 hrs.
In assay [8] the test system is Staphylococcus aureus. In words: In vivo antimicrobial activity against Staphylococcus aureus USA300 infected in Caenorhabditis elegans AU37 nematodes assessed as viability of nematodes incubated for 5 days by susceptibility test. The class given is functional. The following applies: USA300, 120 h, time 5 day.
Assay [9] relates to Enterococcus faecium. In words: Antimicrobial activity against antibiotic-resistant Enterococcus faecium ATCC 700221 assessed as inhibition of visible growth measured after 20 to 24 hrs incubation by CLSI method. To be noted: time 20-24 hrs. In kind it is functional.
Assay [10] concerns Staphylococcus aureus. In words: Antimicrobial activity against antibiotic-resistant Staphylococcus aureus ATCC 700699 assessed as inhibition of visible growth measured after 20 to 24 hrs incubation by CLSI method. The class given is functional. The following applies: time 20-24 hrs.
The test system of assay [11] is Bacillus subtilis. In words: Antimicrobial activity against antibiotic-resistant Bacillus subtilis ATCC 6623 assessed as inhibition of visible growth measured after 20 to 24 hrs incubation by CLSI method. In kind it is functional. To be noted: time 20-24 hrs.
Assay [12] deals with Staphylococcus aureus. In words: Antimicrobial activity against antibiotic-resistant Staphylococcus aureus ATCC 33592 assessed as inhibition of visible growth measured after 20 to 24 hrs incubation by CLSI method. The class given is functional. The following applies: time 20-24 hrs.
Assay [13] has as its system Enterococcus faecalis. In words: Antimicrobial activity against antibiotic-resistant Enterococcus faecalis ATCC 51299 assessed as inhibition of visible growth measured after 20 to 24 hrs incubation by CLSI method. The class given is functional. To be noted: time 20-24 hrs.
The subject of assay [14] is Staphylococcus aureus. In words: Antimicrobial activity against methicilline-resistant Staphylococcus aureus ATCC 700699 persisters assessed as bacterial killing at 32 time of MIC concentration measured for every 2 hrs upto 8 hrs by Persisters time course assay. The class given is functional, organism-based.

Values after ≈ are worked out from the molar mass of the structure shown. Active and inactive are the calls of the source. The calls are words filed in the database; no cut-off is given here.

The MIC is the least concentration at which growth counts as inhibited. Regarding `O=C(O)c1ccc(-n2cc(CNc3cc(Cl)cc(C(F)(F)F)c3)c(-c3ccc(F)c(F)c3)n2)cc1`, the MIC is 1 µg/mL (≈ 1.97 µM) in assay [1]; 0.5 µg/mL (≈ 0.985 µM) in [2]; 0.5 µg/mL (≈ 0.985 µM) in assay [3]; 2 µg/mL (≈ 3.94 µM) in [4]; 0.5 µg/mL (≈ 0.985 µM) in [5]; 1 µg/mL (≈ 1.97 µM) in [6]. Moreover, the MIC in assay [7] came out at 4 µg/mL (≈ 7.88 µM); in assay [8], 1 µg/mL (≈ 1.97 µM); in assay [9], 2 µg/mL (≈ 3.94 µM); in assay [10] it was 1 µg/mL (≈ 1.97 µM); in [11], 0.5 µg/mL (≈ 0.985 µM); in assay [12], 1 µg/mL (≈ 1.97 µM). For the same molecule, in assay [13], the MIC worked out at 2 µg/mL (≈ 3.94 µM).
For the molecule `O=C(O)c1ccc(-n2cc(CNc3cc(C(F)(F)F)cc(C(F)(F)F)c3)c(-c3cccc(F)c3)n2)cc1`, the MIC in assay [1] amounted to 2 µg/mL (≈ 3.82 µM); in assay [2], 1 µg/mL (≈ 1.91 µM); in assay [3], 1 µg/mL (≈ 1.91 µM); in assay [4], 4 µg/mL (≈ 7.64 µM); in assay [7], 4 µg/mL (≈ 7.64 µM); in assay [9], 2 µg/mL (≈ 3.82 µM). For the same molecule, the MIC in assay [10] was determined as 2 µg/mL (≈ 3.82 µM); in assay [11], 1 µg/mL (≈ 1.91 µM); in assay [12] it was 1 µg/mL (≈ 1.91 µM); in assay [13], 2 µg/mL (≈ 3.82 µM). The result in assay [14] was Active.
On to `O=C(O)c1ccc(-n2cc(CNc3cc(C(F)(F)F)cc(C(F)(F)F)c3)c(-c3ccc(F)cc3)n2)cc1`, for which the MIC in [1] was determined as 1 µg/mL (≈ 1.91 µM); in assay [2], 1 µg/mL (≈ 1.91 µM); in [3] it was 0.5 µg/mL (≈ 0.955 µM); in [4], 4 µg/mL (≈ 7.64 µM); in [5] it was 0.5 µg/mL (≈ 0.955 µM); in assay [6] it was 1 µg/mL (≈ 1.91 µM). For the same molecule, the MIC amounted to 4 µg/mL (≈ 7.64 µM) in assay [7]; 1 µg/mL (≈ 1.91 µM) in assay [8]; 2 µg/mL (≈ 3.82 µM) in assay [9]; 2 µg/mL (≈ 3.82 µM) in [10]; 1 µg/mL (≈ 1.91 µM) in assay [11]; 1 µg/mL (≈ 1.91 µM) in assay [12]. The MIC in assay [13] is 4 µg/mL (≈ 7.64 µM).
Regarding `O=C(O)c1ccc(-n2cc(CNc3cccc(C(F)(F)F)c3)c(-c3ccc(F)c(F)c3)n2)cc1`, the MIC in assay [1] is 4 µg/mL (≈ 8.45 µM); in [2], 2 µg/mL (≈ 4.22 µM); in assay [3], 1 µg/mL (≈ 2.11 µM); in assay [4], 8 µg/mL (≈ 16.9 µM); in assay [7], 8 µg/mL (≈ 16.9 µM); in assay [9] it was 4 µg/mL (≈ 8.45 µM). Besides, the MIC turned out to be 8 µg/mL (≈ 16.9 µM) in [10], 1 µg/mL (≈ 2.11 µM) in assay [11], 4 µg/mL (≈ 8.45 µM) in assay [12] and 8 µg/mL (≈ 16.9 µM) in assay [13].
Take `O=C(O)c1ccc(-n2cc(CNc3cc(F)cc(C(F)(F)F)c3)c(-c3ccc(F)c(F)c3)n2)cc1`: the MIC in assay [1] was 2 µg/mL (≈ 4.07 µM); in assay [2] it was 2 µg/mL (≈ 4.07 µM); in [3], 1 µg/mL (≈ 2.04 µM); in assay [4] it was 4 µg/mL (≈ 8.14 µM); in [7] it was 8 µg/mL (≈ 16.3 µM); in assay [9], 4 µg/mL (≈ 8.14 µM). Also, the MIC in [10] was found to be 2 µg/mL (≈ 4.07 µM); in assay [11] it was 1 µg/mL (≈ 2.04 µM); in [12] it was 1 µg/mL (≈ 2.04 µM); in assay [13], 8 µg/mL (≈ 16.3 µM).
As for `O=C(O)c1ccc(-n2cc(CNc3ccc(F)cc3)c(-c3ccc(F)cc3)n2)cc1`, the MIC in assay [1] is 16 µg/mL (≈ 39.5 µM); in assay [2], 32 µg/mL (≈ 78.9 µM); in assay [3], 16 µg/mL (≈ 39.5 µM); in assay [4], 32 µg/mL (≈ 78.9 µM); in assay [7] it was above 32 µg/mL; in [9], above 32 µg/mL. Further, the MIC in assay [10] was 16 µg/mL (≈ 39.5 µM); in [11] it was 16 µg/mL (≈ 39.5 µM); in assay [12] it was 16 µg/mL (≈ 39.5 µM); in assay [13] it was above 32 µg/mL.
Regarding `O=C(O)c1ccc(-n2cc(CNc3ccc(F)c(C(F)(F)F)c3)c(-c3ccc(F)cc3)n2)cc1`, the MIC was 4 µg/mL (≈ 8.45 µM) in assay [1]; 4 µg/mL (≈ 8.45 µM) in [2]; 2 µg/mL (≈ 4.22 µM) in assay [3]; 8 µg/mL (≈ 16.9 µM) in assay [4]; 16 µg/mL (≈ 33.8 µM) in [7]; 16 µg/mL (≈ 33.8 µM) in assay [9]. Also, the MIC in assay [10] is 8 µg/mL (≈ 16.9 µM); in assay [11], 2 µg/mL (≈ 4.22 µM); in assay [12], 4 µg/mL (≈ 8.45 µM); in assay [13] it was 16 µg/mL (≈ 33.8 µM).
For the molecule `O=C(O)c1ccc(-n2cc(CNc3ccccc3)c(-c3ccc(F)cc3)n2)cc1`, the MIC in assay [1] is 32 µg/mL (≈ 82.6 µM); in [2], 32 µg/mL (≈ 82.6 µM); in assay [3], 32 µg/mL (≈ 82.6 µM); in assay [4], 32 µg/mL (≈ 82.6 µM); in assay [7] it was above 32 µg/mL; in [9], above 32 µg/mL. Moreover, the MIC is 32 µg/mL (≈ 82.6 µM) in [10], 16 µg/mL (≈ 41.3 µM) in [11], 32 µg/mL (≈ 82.6 µM) in assay [12] and above 32 µg/mL in [13].
